Laboratory results: patent publication US10016354B2, “Compositions containing polymeric, ionic compounds comprising imidazolium groups” (BASF SE, priority 2011, dated 2018)
≈ marks a conversion by molar mass, not a printed value.

Assays:
[1] = system: Pseudomonas aeruginosa ATCC 27853; assay: Minimum Inhibitory Concentration (MIC) test; assay type: cell-based; conditions: Table 3, known antibiotics as control; 24 h at 37° C.
[2] = system: Staphylococcus aureus ATCC 29213; assay: Minimum Inhibitory Concentration (MIC) test; assay type: cell-based; conditions: Table 3, known antibiotics as control; 24 h at 37° C.

`CC1=C(C(=O)O)N2C(=O)[C@@H](NC(=O)[C@H](N)c3ccccc3)[C@H]2SC1` [Cephalexine] was tested, and the “MIC Pseudomonas aeruginosa ATCC 27853 = DSM 1117” value [1] was >4096 µg/mL and the “MIC Staphylococcus aureus ATCC 29213 = DSM 2569” value [2] was 4 µg/mL (≈ 0.0115 mM).
